Data reported in patent publication US20220016135A1, “TREATING BREAST CANCER WITH HORMONE RECEPTOR MODULATORS” (UNIVERSITY OF MIAMI, priority 2020, published 2022).

How the values were obtained:
Format in all cases: cell-based, human
BT20 = experiment: cell proliferation assay (cell titer blue), BT20; conditions: BT20 (HR1, VDR+), Calcitrol 25 nM alone; FIG. 24A-24C
MDA-MB-468 = experiment: cell proliferation assay (cell titer blue), MDA-MB-468; conditions: MDA-MB-468 (HR1, VDR+), Calcitrol 25 nM alone; FIG. 24A-24C
SUM159 = experiment: cell proliferation assay (cell titer blue), SUM159; conditions: SUM159 (HR1, VDR+), Calcitrol 25 nM alone; FIG. 24A-24C
MDA-MB-453 = experiment: cell proliferation assay, MDA-MB-453; conditions: ER-negative control cell line MDA-MB-453, ICI 182,780 100 nM; FIG. 24H

Row | Structure (SMILES) | proliferation (BT20) | proliferation (MDA-MB-468) | proliferation (SUM159) | inhibition of cell proliferation (MDA-MB-453)
1 | C=C1/C(=C\C=C2/CCC[C@]3(C)[C@@H]([C@H](C)CCCC(C)(C)O)CC[C@@H]23)C[C@@H](O)C[C@@H]1O [Calcitrol, Calcitriol] | reduction in proliferation | reduction in proliferation | reduction in proliferation | –
2 | C[C@]12CC[C@@H]3c4ccc(O)cc4C[C@@H](CCCCCCCCC[S+]([O-])CCCC(F)(F)C(F)(F)F)[C@H]3[C@@H]1CC[C@@H]2O (stereo partly shown) [ICI 182,780] | – | – | – | no inhibition of cell proliferation
